The record followed here is patent US11505558B1, “Antiviral heterocyclic compounds” (Enanta Pharmaceuticals, Inc., priority 2019, dated 2022).

In assay [1] the test system is genotype A, "Long" strain RSV. Nature of the assay: RSV-A assay (CPE, ATPlite readout in Hep-2 cells). The following applies: human respiratory syncytial virus, HEp-2, Hep-2 cells, genotype A "Long" strain RSV, MOI 0.1; read-out: Human RSV-A (“Long” strain) EC50. In kind it is cell-based. A digest of the protocol: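 Hep-2 cells (8,000/well) received 2-fold serial compound dilutions in duplicate and RSV Long strain at MOI 0.1. After 5 days' incubation, cell health was read as ATP by ATPlite luminescence, with virus-only and uninfected controls defining max and minimum CPE; EC50 reported.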

The subject of assay [2] is recombinant HMPV CAN97-83 (MPV-GFP1). Nature of the assay: HMPV antiviral assay (MPV-GFP1 eGFP fluorescence in Vero E6 cells). Type of assay: cell-based. Conditions: human metapneumovirus, Vero C1008, 120 h, read-out: HMPV EC50. The procedure, abridged: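 Vero E6 cells in serum-free OptiMEM with 0.5 μg/mL TPCK-trypsin infected with eGFP-expressing HMPV CAN97-83 (MPV-GFP1) at MOI 0.05. 8-point […] ½-step dilutions from 8 or 2 μM, 0.5% DMSO, 5 days at 32 °C. eGFP fluorescence normalized to infected untreated wells; EC50 from four-parameter logistic fit.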

The EC50 is the concentration giving half of the maximal effect.

Consider `Cc1cnc2c(NC(=O)C3(C)CC3)cc(C(=O)NC[C@](O)(c3cc4c(c(-c5ccc(F)cc5)n3)OC[C@]4(C)C(N)=O)C(F)(F)F)cc2c1` [Example 552], for which the EC50 in assay [1] was under 200 nM; in assay [2] it was under 500 nM.
The corresponding values for `Cc1cnc2c(NC(=O)C3(F)CC3)cc(C(=O)NC[C@](O)(c3cc4c(c(-c5ccc(F)cc5)n3)OC[C@]4(C)C(N)=O)C(F)(F)F)cc2c1` [Example 553] are under 200 nM and under 500 nM.
The corresponding values for `COc1cc(C(=O)NC[C@](O)(c2cc3c(c(-c4ccc(F)cc4)n2)OC[C@]3(C)C(N)=O)C(F)(F)F)cc2cc(C(F)(F)F)cnc12` [Example 557] are under 200 nM and under 500 nM.
In the same order, the values of `COc1cc(C(=O)NC[C@](O)(c2cc3c(c(-c4ccc(F)c(Cl)c4)n2)OC[C@]3(C)C(N)=O)C(F)(F)F)cc2cc(C(F)(F)F)cnc12` [Example 558] are under 200 nM and under 500 nM.
As to `Cc1cnc2c(Nc3cccnn3)cc(C(=O)NC[C@](O)(c3cc4c(c(-c5ccc(F)cc5)n3)OC[C@]4(C)C(N)=O)C(F)(F)F)cc2c1` [Example 560], the EC50 was under 200 nM in assay [1] and under 500 nM in assay [2].
In the same order, the values of `Cc1cnc2c(NC(=O)c3ncco3)cc(C(=O)NC[C@](O)(c3cc4c(c(-c5ccc(F)cc5)n3)OC[C@]4(C)C(N)=O)C(F)(F)F)cc2c1` [Example 561] are under 200 nM and under 500 nM.
In the same order, the values of `COc1cc(C(=O)NC[C@](O)(c2cc3c(c(-c4ccc(F)cc4)n2)OC[C@]3(C)C(N)=O)C(F)(F)F)cc2sc(C)nc12` [Example 562] are under 200 nM and under 500 nM.
In the same order, the values of `C[C@]1(C(N)=O)COc2c1cc([C@@](O)(CNC(=O)c1ccc3[nH]ncc3c1)C(F)(F)F)nc2-c1ccc(F)cc1` [Example 588] are under 200 nM and over 500 nM.
For `COc1cccc2[nH]c(C(=O)NC[C@](O)(c3cc4c(c(-c5ccc(F)cc5)n3)OC[C@]4(C)C(N)=O)C(F)(F)F)cc12` [Example 595], the EC50 in assay [1] was under 200 nM; in assay [2] it was under 500 nM.
For `Cc1nc2cc(C(=O)NC[C@](O)(c3cc4c(c(-c5ccc(F)cc5)n3)OC[C@]4(C)C(N)=O)C(F)(F)F)ccc2[nH]1` [Example 600], the EC50 in assay [1] is under 200 nM; in assay [2], over 500 nM.
In the case of `Cc1cnc2c(Nc3ncncn3)cc(C(=O)NC[C@](O)(c3cc4c(c(-c5ccc(F)cc5)n3)OC[C@]4(C)C(N)=O)C(F)(F)F)cc2c1` [Example 611], the EC50 in assay [1] was under 200 nM; in assay [2] it was over 500 nM.
The corresponding values for `Cc1cnc2c(Nc3nccnn3)cc(C(=O)NC[C@](O)(c3cc4c(c(-c5ccc(F)cc5)n3)OC[C@]4(C)C(N)=O)C(F)(F)F)cc2c1` [Example 613] are under 200 nM and under 500 nM.
Consider `Cc1cnc2c(Oc3ncccn3)cc(C(=O)NC[C@](O)(c3cc4c(c(-c5ccc(F)cc5)n3)OC[C@]4(C)C(N)=O)C(F)(F)F)cc2c1` [Example 615], for which the EC50 in assay [1] was under 200 nM; in assay [2], over 500 nM.
On to `Cc1cc2cc(C(=O)NC[C@](O)(c3cc4c(c(-c5ccc(F)cc5)n3)OC[C@]4(C)C(N)=O)C(F)(F)F)ccc2nn1` [Example 616], for which the EC50 is under 200 nM in assay [1] and under 500 nM in assay [2].
In the same order, the values of `Cc1cc2cc(C(=O)NC[C@](O)(c3cc4c(c(-c5ccc(F)c(Cl)c5)n3)OC[C@]4(C)C(N)=O)C(F)(F)F)ccc2nn1` [Example 617] are under 200 nM and under 500 nM.
In the same order, the values of `Cc1cnc2c(NC(=O)c3ccon3)cc(C(=O)NC[C@](O)(c3cc4c(c(-c5ccc(F)cc5)n3)OC[C@]4(C)C(N)=O)C(F)(F)F)cc2c1` [Example 621] are under 200 nM and over 500 nM.
The corresponding values for `Cc1cnc2c(NC(=O)NCC(C)(C)F)cc(C(=O)NC[C@](O)(c3cc4c(c(-c5ccc(F)cc5)n3)OC[C@]4(C)C(N)=O)C(F)(F)F)cc2c1` [Example 622] are under 200 nM and under 500 nM.
